Columns and labels:
[1] = Removal of smear layer from root canal walls (SEM); conditions: extracted human teeth; 5 min contact; ADD group instrumented with 1% sodium hypochlorite as irrigant
Description: Extracted maxillary and mandibular human teeth were used for this study. The working lengths of these teeth were between 21-25 millimeters. The teeth were scaled of any calculus and other surface debris (soft tissue and/or alveolar bone) using hand scalers. After preparing conventional access preparations through the incisal or occlusal surfaces of the test teeth, a K-type file (size 10) was used to determine the working length of each tooth by penetrating the apical foramen and pulling back to the clinical apical foramen. […] The apex of each tooth was enlarged to size 30 files.
After complete cleaning and shaping, the canals were irrigated with 1 ml of NaOCl and a barbed broach wrapped with cotton was taken to the canal terminus and left for five minutes to ensure uniform direct contact of the irrigant with the entire canal. Upon removal of the barbed broach, the canal was irrigated with 4 ml of NaOCl and rinsed with 10 ml of distilled water. Group 2: NSET was performed using 1% sodium hypochlorite as root canal irrigant. […] Upon removal of the barbed broach, the canal was irrigated with 4 ml of ADD and rinsed with 10 ml of distilled water. […] The presence or absence of smear layer at the coronal, middle, and apical portion of each canal was evaluated. The erosion of dentinal tubules was also assessed at different levels of each canal.

[2] = Removal of smear layer from coronal cavity preparations (SEM); conditions: third molars, Class I preparations; solution left 5 minutes
Experimental: Sound third molars were collected and stored in deionized water. Class I preparations were made following conventionally accepted procedures in the occlusal surfaces of the teeth. The teeth were randomly divided into two groups. […] After this treatment each preparation was rinsed with copious amounts of water to eliminate the residual effect of sodium hypochlorite. Group 2: ADD solution was left in the cavity for 5 minutes. After this treatment each preparation was rinsed with copious amounts of distilled water to eliminate the residual effect of ADD. After irrigation, the crowns were split in half using a diamond saw and constant water spray. Half of each sample was placed into a gluteraldehyde solution for 24 h. The fixed specimens were then rinsed twice by a sodium buffered solution (pH 7.2), treated with osmium tetraoxide for one hour, rinsed with ascending concentrations of ethyl alcohol 30%-100%, and then placed in a dessicator for 24 h. […] The presence or absence of smear layer on the walls of each cavity was evaluated. The erosion of dentinal tubules was also assessed.

[3] = Removal of smear layer from prepared crown preparations (SEM); conditions: saturated cotton pellet left 5 minutes
Experimental: Sound third molars were collected and stored in deionized water. Crown preparations were made following conventionally accepted procedures. The samples were randomly divided into two groups.
After this treatment each preparation was rinsed with copious amounts of distilled water to eliminate the residual effect of sodium hypochlorite.
Group 2: A cotton pellet saturated with ADD solution was left on the crown preparations for 5 minutes. After this treatment each preparation was rinsed with copious amounts of distilled water to eliminate residual ADD.
After irrigation, the crown preparations were split in half using a diamond saw and constant water spray. Half of each sample was placed into a gluteraldehyde solution for 24 h. The fixed specimens were then rinsed twice by a sodium buffered solution (pH 7.2), treated with osmium tetraoxide for one hour, rinsed with ascending concentrations of ethyl alcohol 30%-100%, and then placed in a dessicator for 24 h. Finally, each specimen was mounted on a special button, and coated with 25 μm of gold-palladium (Au—Pd) (Wakabayashi et al., 1995). The presence or absence of smear layer on the walls of each cavity was evaluated. The erosion of dentinal tubules was also assessed.

[4] = Removal of smear layer from root surfaces of teeth (SEM); conditions: saturated cotton pellet left 5 minutes
Experimental: The coronal one-third root surfaces of these teeth were curetted following conventionally accepted procedures. The samples were randomly divided into two groups.
After this treatment each root surface was rinsed with copious amounts of distilled water to eliminate the residual effect of sodium hypochlorite.
Group 2: A cotton pellet saturated with ADD solution was left on the root surface preparations for 5 minutes. After this treatment each preparation was rinsed with copious amounts of distilled water to eliminate the residual effect of ADD.
After irrigation, the entire tooth was split in half using a diamond saw and constant water spray. Half of each sample was placed into a gluteraldehyde solution for 24 h. The fixed specimens were then rinsed twice by a sodium buffered solution (pH 7.2), treated with osmium tetraoxide for one hour, rinsed with ascending concentrations of ethyl alcohol 30%-100%, and then placed in a dessicator for 24 h. Finally, each specimen was mounted on a special button, and coated with 25 μm of gold-palladium (Au—Pd) (Wakabayashi et al., 1995). The presence or absence of smear layer on the root surfaces was evaluated. The erosion of dentinal tubules was also assessed.

[5] = Removal of smear layer from root end cavity preparations (SEM); set-up: species or system human; conditions: solution left in cavity five minutes
Experimental: Extracted, human single-rooted teeth were used in this part of the experiment.
The working length of each canal was determined by placing and moving a #15 K file apically in the canal until it exited from the apical foramen.
The access cavities were closed with Cavit. The roots were then wrapped in moist gauze and stored in a closed glass bottle at room temperature and 100% humidity for one week.
Two coats of nail polish were applied to the external surface of each root.
Apical cavity preparations were made in each of the roots. A #1 round bur in a high-speed handpiece with water coolant was used to create a small opening into the gutta-percha filling material.
The roots were then randomly divided into two groups. […] The solution was left in the cavity for five minutes and then rinsed with 10 ml of distilled water. In Group 2, the preparations were rinsed with 5 ml of ADD. This solution was also left in the root end cavities for five minutes and then rinsed with 5 ml of distilled water. After drying with paper points, the roots were split in halves using a slow speed diamond saw (Labut Agar Scientific, Cambridge, England).
Half of each sample was placed into a gluteraldehyde solution for 24 h. […] The presence or absence of smear layer on the root end cavity preparations was evaluated. The erosion of dentinal tubules was also assessed.

Enterococcus faecalis [6] = assay: Zone of inhibition on inoculated TSA plates; assay type: cell-based; conditions: E. faecalis; for bactericidal effect upon dilution (zone of inhibition): diluted five- or ten-fold
Experimental: In the first test, the zone of inhibition was measured on plates inoculated with Enterococcus faecalis. An overnight culture of E. faecalis (ATCC 4082) was standardized to 0.11 optical density (O.D.) measured at 570 nm. One hundred microliters of the microorganism was spread onto a trypticase soy agar (TSA) plate with the use of a sterile L-shaped glass rod. One-quarter inch sterile S & S filter paper (Schleicher & Schuell) was placed in each of the four quadrants of the TSA plate. […] Eight replicates were prepared for each of the sample solutions. The plates were incubated overnight at 37° C. for 24 hours and the zones of inhibition were measured in millimeters.

[7] = system: root canals infected with whole saliva; assay: Disinfection of human root canals infected with whole saliva
Description: It will be apparent to those of skill in the art that a solution such as the one described herein (i.e., one that has improved biocompatibility and is effective in a shorter period of time than previously known treatments) is highly desirable, particularly in the health care fields. Studies have also shown that, unlike other previously known dental irrigants, the solution of the present invention maintains the desired antimicrobial effect at dilutions up to 1:200. […] In a further study undertaken to evaluate the antimicrobial properties of the presently described solution, human root canals were infected with whole saliva and then treated with either 5.25% NaOCl or a solution of doxycycline, polysorbate 80, and citric acid. While the NaOCl effectively disinfected only 37 out of 60 teeth, the solution of the present invention disinfected 59 out of 60 teeth. The importance and desirability of such improved antimicrobial properties can be easily appreciated, particularly by those of skill in the art.

Enterococcus faecalis [8] = assay: Minimum inhibitory concentration (serial dilution, turbidity); assay type: cell-based
Experimental: In the second test, the minimum inhibitory concentration (MIC) was measured. E. faecalis was cultured overnight and the concentration was adjusted to 0.11 O.D. at 570 nm. The test solutions were serially diluted from 1:2 up to 1:2048 dilutions. One ml of 2× trypticase soy broth (TSB) and the same amount of a test solution were mixed in various tubes. One hundred microliters of the standardized E. faecalis was added into each of the test tubes and were incubated overnight at 37° C. The presence or absence of turbidity was determined the following day.

Row | Structure (SMILES) | presence or absence of smear layer on root canal walls [1] | presence or absence of smear layer on cavity walls [2] | presence or absence of smear layer on crown preparations [3] | presence or absence of smear layer on root surfaces [4] | presence or absence of smear layer on root end cavity preparations [5] | bactericidal effect upon dilution (zone of inhibition) (Enterococcus faecalis [6]) | zone of inhibition, undiluted versus diluted (Enterococcus faecalis [6]; undiluted, 1:5, 1:10) | teeth disinfected [7] | dilution up to which solution is effective (minimum inhibitory concentration test) (Enterococcus faecalis [8]; E. faecalis, overnight at 37° C., turbidity) | dilution limit of antimicrobial / bactericidal effect (Enterococcus faecalis [8]; summary statement in description)
1 | [Na+].[O-]Cl [5.25% NaOCl, sodium hypochlorite] | presence of smear layer on the entire root canal walls of all teeth | presence of smear layer on the walls of all teeth | presence of smear layer on the surface of all crowns | presence of smear layer on the surface of all roots | presence of smear layer on the surface of all cavity preparations | some bactericidal effect | more effective when undiluted than at 1:5 or 1:10 dilution | 37 out of 60 |  | 
2 | O=C(O)CN(CCN(CC(=O)O)CC(=O)O)CC(=O)O [EDTA, ethylenediamine tetraacetic acid] |  |  |  |  |  | no bactericidal properties |  |  | no antibacterial effects at any dilution level | ineffective in anything other than an undiluted state
